Measurements: US9828644B2, “BACH2 repression in cells” (UNIVERSITE LIBRE DE BRUXELLES, priority 2010, dated 2017)

B1: Fas-L: FAS ligand (FASLG/TNFSF6) added to Jurkat clones to trigger apoptosis (protein, UniProt P48023 130-281, looked up)
Tumor necrosis factor ligand …: QIGHPSPPPEKKELRKVAHLTGKSNSRSMPLEWEDTYGIVLLSGVKYKKGGLVINETGLYFVYSKVYFRGQSCNNLPLSHKVYMRNSKYPQDLVMMEGKMMSYCTTGQMWARSSYLGAVFNLTSADHLYVNVSELSLVNFEESQTFFGLYKL

Key:
[1] = test system: Fas L mRNA in CD4+ cells from a patient having a hemizigous deletion of BACH2 gene; experiment: Fas L mRNA abundance in CD4+ cells ex vivo in function of etoposide treatment; assay type: cell-based, human; settings: CD4+ cells having lost one copy of BACH2, compared with control CD4+ cells from a healthy donor
Text: This observation is further confirmed by the ex-vivo analysis shown at FIG. 8, wherein, clearly, CD4+ T cells having hemizigous BACH2 fail to express FasL mRNA.

[2] = test system: shRNA CTRL Jurkat clones (E6.1 Jurkat T cell line); experiment: Apoptosis assay (annexin V-FITC and PI staining, flow cytometry) in shRNA CTRL Jurkat clones; assay type: cell-based; settings: for Apoptosis response % shRNACTRL: shRNA CTRL Jurkat clones
Procedure: (§1) The apoptosis was assessed by flow cytometry. Columns with standard deviation represent the mean percentage of 3 experiments.
(§2) Histograms of gated cells represent early and late apoptotic populations. As shown in the left panel, 42% of treated shRNA CTRL cells are in apoptosis whereas 18% of apoptotic shRNA BACH2 cells are observed after BACH2 repression
(§3) The inventors firstly added FAS ligand (FASLG/TNFSF6) or PMA (phorbol myristic acetate) (see Table 2) to control or to cells transfected with BACH2 sh RNA. They further treated control and transfected cells (with BACH2 sh RNA) by a 18-hours stimulation with anti-CD2, anti-CD28 or anti-CD3 antibodies.

[3] = test system: shRNA BACH2 Jurkat clones (E6.1 Jurkat T cell line); experiment: Apoptosis assay (annexin V-FITC and PI staining, flow cytometry) in shRNA BACH2 Jurkat clones; assay type: cell-based; settings: for Apoptosis response % shRNABACH2: shRNA BACH2 Jurkat clones; for Apoptosis response Difference %: shRNACTRL minus shRNABACH2 Jurkat clones
Procedure: as §1, §2, §3

| Molecule | FasL mRNA production upon etoposide exposure [1] | cells in apoptosis (early and late apoptotic populations) ([2]; clone shRNA CTRL-A, 1 μg/ml etoposide, 18 hrs) | Apoptosis response % shRNACTRL [2] | reduction in the number of apoptotic cells (AnnexinV+) in the BACH2-repressed clone ([3]; clone shRNA BACH2-C versus shRNA control-A, 1 μg/ml of etoposide) | apoptotic cells (early and late apoptotic populations) ([3]; clone shRNA BACH2-C, 1 μg/ml etoposide, 18 hrs) | Apoptosis response % shRNABACH2 [3] | Apoptosis response Difference % [3] |
| --- | --- | --- | --- | --- | --- | --- | --- |
| COc1cc([C@@H]2c3cc4c(cc3[C@@H](O[C@@H]3O[C@@H]5CO[C@@H](C)O[C@H]5[C@H](O)[C@H]3O)[C@H]3COC(=O)[C@H]23)OCO4)cc(OC)c1O [Etoposide] | fails to produce FasL | 42% | 41.2 (+/−4.94) % | two-fold reduction | 18% | 18.27 (+/−2.71) % | 23% |
| CCCCCCCCCCCCCC(=O)O[C@@H]1[C@@H](C)[C@@]2(O)[C@@H](C=C(CO)C[C@]3(O)C(=O)C(C)=C[C@@H]23)[C@@H]2C(C)(C)[C@]12OC(C)=O [PMA, phorbol myristic acetate] |  |  | 16.17 (+/−2.26) % |  |  | 16.7 (+/−6.12) % | −0.5% |
| B1 |  |  | 33.18 (+/−2.32) % |  |  | 34.51 (+/−3.75) % | −1.3% |
